# Results from patent US20250235456A1, “METHODS OF USE FOR AZA-QUINAZOLINE COMPOUNDS” (Iambic Therapeutics, Inc., priority 2024, published 2025).
# Read-outs that look alike come from different tables or passages of the source.
# Legend:
# MCF-7 cells = assay: Cell Growth Inhibition, MCF-7 (CellTiterGlo, 6 days); type: cell-based
# From the text: (§1) MCF-7 and OVCAR-3 cells were used to evaluate the anti-proliferation activity of the CDK inhibitors. MCF-7 (ATCC, HTB-22) cells are epithelial cells from a patient with ER+ metastatic adenocarcinoma. OVCAR-3 (ATCC, HTB-161) cells were derived from malignant ascites of a patient with ovarian cancer and are known to have CCNE1 amplification. Both cell lines were maintained in RPMI media supplemented with 10% fetal bovine serum. For cell growth inhibition assay, CDK inhibitors in DMSO solution were dispensed with either Echo 655 (Beckman Coulter) or Tecan D300e (TIP) into 384-well plates (Corning #3765) and the 384-well plates were UV-sterilized prior to the assay. The inhibitors were typically tested in the 10-10,000 nM concentration range with half-log serial dilutions. MCF-7 or OVCAR-3 (500 cells/30 μL/well) were added to each well using Multidrop Combi (ThermoFisher) using standard cassettes. The assay plates with cells were cultured at 37° C., 5% CO2 for 6 days. At the end of the 6-day treatment, 30 μL of CellTiterGlo 2.0 (Promega) was added to each well and the luminescent signal was read using CLARIOstar plus (BMG). The percentage of cell growth inhibition (% CGI) was calculated using the following formula % CGI=100-100×luminescencesample/luminescenecontrol. The half maximal inhibitory concentration (IC50) was determined by nonlinear curve fitting (four parameters, variable slope).
# OVCAR-3 cells = assay: Cell Growth Inhibition, OVCAR-3 (CellTiterGlo, 6 days); type: cell-based
# From the text: as §1
# [1] = biological target: CDK2/Cyclin E1 full length (Homo sapiens (Human), UniProt P24941); assay: CDK2/Cyclin E1 Full length ADP-Glo Kinase Assay; type: biochemical; conditions: read-out: CDK2/CyclinE1 IC50
# Experimental: CDK2/Cyclin E1 Full length ADP-Glo Kinase Assay
# The purpose of CDK2/Cyclin El assay is to evaluate the inhibition (% inhibition and IC50 values) of small molecule inhibitors by using a Luminescent based ADP-Glo assay. CDK2/Cyclin El full length catalyzes the production of ADP from ATP. ADP-Glo assay monitors ADP producing biochemical reactions. ADP-Glo is performed in 2 steps upon completion of kinase reaction: a combined termination of kinase reaction and depletion of remaining ATP in the first step, and conversion of generated ADP to ATP and the newly produced ATP to light output using luciferase/luciferin reaction in the second step. The luminescent signal generated is proportional to the ADP concentration produced and is correlated with the kinase activity. CDK2/Cyclin E1 was purchased from Eurofins (Cat 14-475M). […] The assay was initiated with the addition of ATP-containing substrate solution, following a 30-minute pre-incubation of enzyme and inhibitor at room temperature in the reaction mixture. The reaction was stopped after 90 minutes at room temperature by the addition of 10 μL of ADP-GLO Reagent. After a 90 minute incubation, 20 uL of Kinase Detection Reagent was added. Samples were incubated for 40 minutes, after which plate well luminescence was measured on a Envision microplate reader. The IC50 determinations were made from a plot of the fractional velocity as a function of inhibitor concentration fit to the 4 parameters IC50 equation.
# CDK6/Cyclin D3 = CDK6/Cyclin D3 (Homo sapiens (Human), UniProt Q00534); assay: CDK6/Cyclin D3 ADP-Glo Kinase Assay; type: biochemical; conditions: read-out: CDK6/CyclinD3 IC50
# CDK6/Cyclin D3, sequence (Q00534 whole entry): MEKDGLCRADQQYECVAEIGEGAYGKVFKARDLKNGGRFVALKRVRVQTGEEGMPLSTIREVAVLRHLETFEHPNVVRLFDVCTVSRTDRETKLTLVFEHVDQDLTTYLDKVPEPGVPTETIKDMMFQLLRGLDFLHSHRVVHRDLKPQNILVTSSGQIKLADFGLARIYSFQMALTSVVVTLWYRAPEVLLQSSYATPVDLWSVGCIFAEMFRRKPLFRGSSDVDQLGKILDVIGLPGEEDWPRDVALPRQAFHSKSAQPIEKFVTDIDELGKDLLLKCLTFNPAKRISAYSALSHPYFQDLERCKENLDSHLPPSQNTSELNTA
# CDK6/Cyclin D3, sequence (P30281 whole entry partner): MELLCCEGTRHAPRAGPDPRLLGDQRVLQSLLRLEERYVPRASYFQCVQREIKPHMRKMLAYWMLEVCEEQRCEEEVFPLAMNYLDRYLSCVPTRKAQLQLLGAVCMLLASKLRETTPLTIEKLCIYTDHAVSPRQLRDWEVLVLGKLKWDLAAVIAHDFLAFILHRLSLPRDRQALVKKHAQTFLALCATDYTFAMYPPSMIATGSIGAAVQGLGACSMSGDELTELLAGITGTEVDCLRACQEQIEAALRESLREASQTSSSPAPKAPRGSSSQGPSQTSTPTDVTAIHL
# How it was run: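 Commercial CDK6/Cyclin D3 pre-incubated with inhibitor 30 min at room temperature, then reaction started with ATP/substrate and run 90 min at room temperature. ADP formed measured by ADP-Glo luminescence; IC50 from fractional velocity vs inhibitor concentration fit to a 4-parameter equation.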
# CDK1/Cyclin B1 = CDK1/Cyclin B1 (Homo sapiens (Human), UniProt P06493); assay: CDK1/Cyclin B1 ADP-Glo Kinase Assay; type: biochemical
# CDK1/Cyclin B1, sequence (P06493 whole entry): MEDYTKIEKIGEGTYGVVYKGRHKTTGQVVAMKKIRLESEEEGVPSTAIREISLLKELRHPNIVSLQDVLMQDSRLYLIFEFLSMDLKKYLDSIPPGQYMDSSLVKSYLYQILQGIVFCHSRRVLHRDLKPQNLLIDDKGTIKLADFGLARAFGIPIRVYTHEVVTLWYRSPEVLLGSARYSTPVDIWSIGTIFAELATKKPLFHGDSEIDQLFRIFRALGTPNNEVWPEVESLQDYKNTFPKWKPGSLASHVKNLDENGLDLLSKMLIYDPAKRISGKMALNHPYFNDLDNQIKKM
# CDK1/Cyclin B1, sequence (P14635 whole entry partner): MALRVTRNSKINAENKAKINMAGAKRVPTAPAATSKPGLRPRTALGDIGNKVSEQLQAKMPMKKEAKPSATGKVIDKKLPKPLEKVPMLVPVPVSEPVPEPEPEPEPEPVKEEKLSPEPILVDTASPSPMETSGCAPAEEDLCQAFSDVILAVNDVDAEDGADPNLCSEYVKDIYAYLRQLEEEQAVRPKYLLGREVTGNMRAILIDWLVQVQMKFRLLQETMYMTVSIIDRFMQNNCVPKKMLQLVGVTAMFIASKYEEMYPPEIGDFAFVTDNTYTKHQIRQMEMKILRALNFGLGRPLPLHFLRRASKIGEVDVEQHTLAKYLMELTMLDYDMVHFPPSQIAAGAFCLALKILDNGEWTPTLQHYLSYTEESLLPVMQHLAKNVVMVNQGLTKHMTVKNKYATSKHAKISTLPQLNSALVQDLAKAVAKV
# How it was run: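 Purchased CDK1/Cyclin B1 was pre-incubated 30 min with inhibitor at room temperature, then reacted 90 min at room temperature after adding ATP-containing substrate. ADP formed was read by two-step ADP-Glo luminescence. IC50 came from a 4-parameter fit of fractional velocity versus inhibitor concentration.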
# CDK4/Cyclin D1 [2] = biological target: T1, CDK4/Cyclin D1 (Homo sapiens (Human), UniProt P11802); assay: CDK4/Cyclin D1 CHEF Assay; type: biochemical; conditions: AQT; read-out: CDK4/CyclinD1 AQT IC50
# T1 sequence (P11802 whole entry, species assumed): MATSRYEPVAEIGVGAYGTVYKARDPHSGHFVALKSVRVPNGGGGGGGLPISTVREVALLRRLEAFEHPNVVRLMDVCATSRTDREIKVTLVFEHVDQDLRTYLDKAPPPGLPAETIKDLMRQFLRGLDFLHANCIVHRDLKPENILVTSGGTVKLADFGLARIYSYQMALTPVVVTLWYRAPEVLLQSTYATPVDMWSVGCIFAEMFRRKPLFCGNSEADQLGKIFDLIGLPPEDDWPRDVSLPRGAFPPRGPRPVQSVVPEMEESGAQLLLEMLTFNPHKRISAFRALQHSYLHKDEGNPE
# T1 sequence (P24385 whole entry partner, species assumed): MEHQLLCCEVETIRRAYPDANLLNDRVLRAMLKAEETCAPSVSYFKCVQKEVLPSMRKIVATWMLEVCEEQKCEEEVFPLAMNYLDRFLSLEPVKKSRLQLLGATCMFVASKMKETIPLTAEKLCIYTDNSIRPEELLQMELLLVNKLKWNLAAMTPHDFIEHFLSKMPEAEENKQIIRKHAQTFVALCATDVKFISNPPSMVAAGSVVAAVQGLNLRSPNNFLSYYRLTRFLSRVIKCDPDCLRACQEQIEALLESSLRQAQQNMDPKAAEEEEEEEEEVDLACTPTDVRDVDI
# How it was run: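 Peptide substrate AQT0258 carries a Sox fluorophore whose Mg(II)-dependent fluorescence (ex 360/em 485 nm) rises on phosphorylation. Enzyme and inhibitor pre-incubated 30 min at 22 °C, substrate added, reaction run 3 h at 22 °C. IC50 from 4-parameter fit of fractional velocity vs inhibitor concentration.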
# CDK4/Cyclin D1 [3] = biological target: T1, CDK4/Cyclin D1; assay: CDK4/Cyclin D1 Mobility Shift Assay (MSA); type: biochemical; conditions: read-out: CDK4/CyclinD1 MSA IC50
# From the text: CDK4/Cyclin D1 Mobility Shift Assay (MSA) The purpose CDK4/Cyclin D1 assay is to evaluate the inhibition (% inhibition and IC50 values) in the presence of small molecule inhibitors by using a fluorescence based microfluidic mobility shift assay. CDK4/Cyclin D1 catalyzes the production of ADP from ATP that accompanies the phosphoryl transfer to the substrate peptide 5-FAM-Dyrktide (5-FAM-[…]) (Perkin Elmer Peptide 34). The mobility shift assay (MSA) electrophoretically separates the fluorescently labelled peptides (substrate and phosphorylated product) following the kinase reaction. Both substrate and product are measured, and the ratio of these values is used to generate % conversion of substrate to product by the LabChip EZ Reader. Typical reaction solutions contained 2% DMSO (+/−inhibitor), 10 mM MgCl2, 1 mM EGTA, 0.05% BSA, 2 mM DTT, 0.2 mM ATP, 0.01% Brig-35, 1.5 uM 5-FAM-Dyrktide, 2.5 nM CDK4/Cyclin D1 in 50 mM HEPES buffer at pH 7.5. The reaction was initiated with the addition of substrate solution, following a 30-minute pre-incubation of enzyme and inhibitor at 22° C. in the reaction mix. The reaction was stopped after 180 minutes by the addition of 75 μL of 500 mM EDTA and measured on a Perkin Elmer EZ reader instrument. IC50 determinations were made from a plot of the fractional velocity as a function of inhibitor concentration fit to the 4 parameters IC50 equation.
Compound,IC50 (MCF-7 cells),IC50 (OVCAR-3 cells),IC50 [1],IC50 (CDK6/Cyclin D3),IC50 (CDK1/Cyclin B1),IC50 (CDK4/Cyclin D1 [2]),IC50 (CDK4/Cyclin D1 [3]),"IC50 (MCF-7 cells; Homo sapiens, MCF7, 144 h)","IC50 (OVCAR-3 cells; Homo sapiens, 144 h)"
"1-cyclopropyl-3-(6-methyl-2-((1-(methylsulfonyl)piperidin-4-yl)amino)pyrido[3,4-d]pyrimidin-8-yl)cyclobutan-1-ol [Compound 85]",0.5 to 2 µM,0.5 to 2 µM,< 0.2 µM,< 0.2 µM,< 0.2 µM,< 0.2 µM,,,
"CS(=O)(=O)N1CCC(Nc2ncc3ccnc(N4CCN(C5CC5)CC4)c3n2)CC1 [Compound 1, 8-(4-cyclopropylpiperazin-1-yl)-N-(1-(methylsulfonyl)piperidin-4-yl)pyrido[3,4-d]pyrimidin-2-amine]",,,,0.2 to 0.5 µM,,,< 0.2 µM,,
"CS(=O)(=O)N1CCC(Nc2ncc3ccnc(N4CCC5(C4)CC5(F)F)c3n2)CC1 (stereo not drawn) [Compound 3, 8-(1,1-difluoro-5-azaspiro[2.4]heptan-5-yl)-N-(1-(methylsulfonyl)piperidin-4-yl)pyrido[3,4-d]pyrimidin-2-amine]",,,,< 0.2 µM,< 0.2 µM,,< 0.2 µM,,
"CN1CCN(c2ccc(Nc3ncc4ccnc(N5CCC6(C5)CC(F)(F)C6)c4n3)cc2)CC1 [Compound 4, 8-(2,2-difluoro-6-azaspiro[3.4]octan-6-yl)-N-(4-(4-methylpiperazin-1-yl)phenyl)pyrido [3,4-d]pyrimidin-2-amine]",,,,< 0.2 µM,0.2 to 0.5 µM,,< 0.2 µM,,
"CS(=O)(=O)N1CCC(Nc2ncc3ccnc(N4CCC(C#N)(C5CC5)C4)c3n2)CC1 (stereo not drawn) [Compound 5, 3-cyclopropyl-1-(2-((1-(methylsulfonyl)piperidin-4-yl)amino)pyrido[3,4-d]pyrimidin-8-yl)pyrrolidine-3-carbonitrile]",,,,< 0.2 µM,< 0.2 µM,,< 0.2 µM,,
"CS(=O)(=O)N1CCC(Nc2ncc3ccnc(N4CCC5(CCOCC5)C4)c3n2)CC1 [Compound 7, N-(1-(methylsulfonyl)piperidin-4-yl)-8-(8-oxa-2-azaspiro[4.5]decan-2-yl)pyrido[3,4-d]pyrimidin-2-amine]",,,,< 0.2 µM,0.2 to 0.5 µM,,< 0.2 µM,,
"CS(=O)(=O)N1CCC(Nc2ncc3ccnc(N4CC5(C4)CN(C4CC4)C5)c3n2)CC1 [Compound 8, 8-(6-cyclopropyl-2,6-diazaspiro[3.3]heptan-2-yl)-N-(1-(methylsulfonyl)piperidin-4-yl)pyrido[3,4-d]pyrimidin-2-amine]",,,,,0.2 to 0.5 µM,,< 0.2 µM,,
"CN1CCN(c2ccc(Nc3ncc4ccnc(N5CCC6(CCN(S(C)(=O)=O)C6)C5)c4n3)cc2)CC1 (stereo not drawn) [Compound 9, N-(4-(4-methylpiperazin-1-yl)phenyl)-8-(7-(methylsulfonyl)-2,7-diazaspiro[4.4]nonan-2-yl) pyrido[3,4-d]pyrimidin-2-amine]",,,,,0.2 to 0.5 µM,,< 0.2 µM,,
"CCN1CC2(C1)CN(c1ccc(Nc3ncc4ccnc(N5CCC6(C5)CC(F)(F)C6)c4n3)nc1)C2 [Example 6, 8-(2,2-difluoro-6-azaspiro[3.4]octan-6-yl)-N-(5-(6-ethyl-2,6-diazaspiro[3.3]heptan-2-yl)pyridin-2-yl)pyrido[3,4-d]pyrimidin-2-amine]",,,,< 0.2 µM,> 2 µM,,< 0.2 µM,,

# Other lines, results leading:
IC50 (MCF-7 cells),IC50 (OVCAR-3 cells),IC50 [1],IC50 (CDK6/Cyclin D3),IC50 (CDK1/Cyclin B1),IC50 (CDK4/Cyclin D1 [2]),IC50 (CDK4/Cyclin D1 [3]),"IC50 (MCF-7 cells; Homo sapiens, MCF7, 144 h)","IC50 (OVCAR-3 cells; Homo sapiens, 144 h)",Compound
,,,< 0.2 µM,> 2 µM,,< 0.2 µM,,,"CN1CCn2nc(Nc3ncc4ccnc(N5CCC6(C5)CC6(F)F)c4n3)cc2C1 (stereo not drawn) [Compound 10, 8-(1,1-difluoro-5-azaspiro[2.4]heptan-5-yl)-N-(5-methyl-4,5,6,7-tetrahydropyrazolo [1,5-a]pyrazin-2-yl)pyrido[3,4-d]pyrimidin-2-amine]"
,,,< 0.2 µM,0.2 to 0.5 µM,,< 0.2 µM,,,"CS(=O)(=O)N1CC(Nc2ncc3ccnc(N4CCC5(C4)CC5(F)F)c3n2)C1 (stereo not drawn) [Compound 14, 8-(1,1-difluoro-5-azaspiro[2.4]heptan-5-yl)-N-(1-(methylsulfonyl)azetidin-3-yl) pyrido[3,4-d]pyrimidin-2-amine]"
,,< 0.2 µM,< 0.2 µM,< 0.2 µM,,< 0.2 µM,,,"CS(=O)(=O)N1CCC(Nc2ncc3ccnc(N4C[C@H]5c6ccccc6S(=O)(=O)[C@H]5C4)c3n2)CC1 [Compound 16, (3aR,8bR)-2-(2-((1-(methylsulfonyl)piperidin-4-yl)amino)pyrido[3,4-d]pyrimidin-8-yl)-2,3,3a,8b-tetrahydro-1H-benzo[4,5]thieno [2,3-c]pyrrole 4,4-dioxide]"
,,0.2 to 0.5 µM,0.2 to 0.5 µM,,,< 0.2 µM,,,"CN1C[C@@H]2[C@H](C1)[C@H]2Nc1ncc2ccnc(N3CCC4(C3)CC4(F)F)c2n1 (stereo partly drawn) [Compound 17, 8-(1,1-difluoro-5-azaspiro[2.4]heptan-5-yl)-N-((1R,5S,6s)-3-methyl-3-azabicyclo[3.1.0]hexan-6-yl) pyrido[3,4-d]pyrimidin-2-amine]"
,,,< 0.2 µM,,,< 0.2 µM,,,"CN1CCC(n2cc(Nc3ncc4ccnc(N5CCC6(C5)CC6(F)F)c4n3)cn2)CC1 (stereo not drawn) [Compound 20, 8-(1,1-difluoro-5-azaspiro[2.4]heptan-5-yl)-N-(1-(1-methylpiperidin-4-yl)-1H-pyrazol-4-yl)pyrido[3,4-d]pyrimidin-2-amine]"
,,0.2 to 0.5 µM,< 0.2 µM,> 2 µM,,< 0.2 µM,,,"CCN1CC2(C1)CN(c1ccc(Nc3ncc4ccnc(N5CCC6(C5)CC6(F)F)c4n3)nc1)C2 (stereo not drawn) [Compound 21, 8-(1,1-difluoro-5-azaspiro[2.4]heptan-5-yl)-N-(5-(6-ethyl-2,6-diazaspiro[3.3]heptan-2-yl)pyridin-2-yl)pyrido[3,4-d]pyrimidin-2-amine]"
,,,< 0.2 µM,< 0.2 µM,< 0.2 µM,,0.5 to 2 µM,0.5 to 2 µM,"Cc1cc2cnc(NC3CCN(S(C)(=O)=O)CC3)nc2c(C2CC(O)(C(F)F)C2)n1 (stereo not drawn) [Compound 93, 1-(difluoromethyl)-3-(6-methyl-2-((1-(methylsulfonyl)piperidin-4-yl)amino)pyrido[3,4-d]pyrimidin-8-yl)cyclobutan-1-ol]"
,,,< 0.2 µM,< 0.2 µM,,< 0.2 µM,,,"CS(=O)(=O)N1CCC(Nc2ncc3ccnc(N4CCC5(C4)CC(F)(F)C5)c3n2)CC1 [Example 2, 8-(2,2-difluoro-6-azaspiro[3.4]octan-6-yl)-N-(1-(methylsulfonyl)piperidin-4-yl)pyrido[3,4-d]pyrimidin-2-amine]"
